Measured values as given in US9981912B2, “Cocrystal of lorcaserin, preparation methods, pharmaceutical compositions and uses thereof” (priority 2014, dated 2018).
Structures can show the parent of a compound that is named as a salt.

Legend:
[1] = Storage stability at 25° C., 60% RH for 6 months; assay type: physicochemical
[2] = Solubility in pure water at 25° C. (Test Example 1)
[3] = disclosed in WO2006/069363A2; cited from earlier work

In the case of “cocrystal of lorcaserin hydrochloride and benzoic acid [the cocrystal]”, the “purity and crystalline form after storage” value [1] is reported as “unchanged”.

In the case of `C[C@H]1CNCCc2ccc(Cl)cc21` [lorcaserin hydrochloride hemihydrate, (R)-8-chloro-1-methyl-2,3,4,5-tetrahydro-1H-3-benzazepine], the solubility ([2]; in water, 25° C., listed as Lorcaserin hydrochloride hemihydrate (the known)) is given as greater than 200 mg/mL, the solubility ([2]; pure water, 25 °C, water, thermodynamic from solid) is given as greater than 200 mg/mL and the hygroscopicity [3] is given as “poor hygroscopicity”. For the same molecule, the “stability among crystalline Forms I, II and III” value [3] was “the most stable form”.
